# In patent US8883963B2 (Cadila Healthcare Limited, priority 2007, dated 2014):
# Starred links: 1 amine or outer side, 2 acyl side, 3 side chain; linkers in the order of their positions; H or OH if unused. Non-standard residues stand in square brackets, D forms with d. Residues, ends and D or L forms follow the SMILES beside them. ξ: configuration not given here. ξBip(2'-Et-4'-OMe) = CCc1cc(OC)ccc1-c1ccc(CC(N)C(=O)O)cc1; X6 = O=C(C(CCCc1ccc(Cl)cc1Cl)N[*:1])[*:2]; X10 = O=C(C(CCCc1ccc(F)cc1F)N[*:1])[*:2]; ξhhPhe = NC(CCCc1ccccc1)C(=O)O; ξAbu(4-CN) = N#CCCC(N)C(=O)O; Ac5c = NC1(C(=O)O)CCCC1; Aib = CC(C)(N)C(=O)O
# Experiments:
# [1] = test system: RIN5F (Rat Insulinoma) cells; assay: In vitro glucose-dependent insulin secretion (RIN5F cell assay screening protocol); assay type: cell-based; conditions: 16.7 mM glucose load
# Experimental: RIN5F (Rat Insulinoma) cells were cultured in RPMI 1640 medium supplemented with sodium pyruvate (1 mM) HEPES and Glucose (4.5 g/L) in a humidified incubator (5% CO2), at 37° C. After trypsinization, RIN5F cells were seeded at a concentration of 0.2×10^6 cells per well, in 12 well plates.
# The buffer was replaced after 40 min. and the cells were incubated (37° C.) with the test peptidomimetics, at different concentration, for 30 min., both in the presence (16.7 mM) and absence (0 mM) of glucose load. The supernatant was collected and the insulin amount was measured by ultra sensitive Rat insulin ELISA kit (Crystal Chem, IL). The protein was estimated in the supernatant using Bicinchoninic Acid kit, according to the manufacturer's protocol (Sigma Aldrich, MO). The total insulin content obtained in Pico-gram (pg) was divided with the total protein (μg) in order to normalize for differences in cell density between wells.
# human glucagon receptor = biological target: T1, human glucagon receptor (Homo sapiens, UniProt P47871); assay: In vitro human glucagon antagonist activity (inhibition of cAMP production) in CHO/human glucagon R cells; assay type: cell-based; conditions: with saturated concentration of glucagon peptide
# T1 construct: The full-length cDNA was cloned in pcDNA3.1 (Invitrogen); expressed in transfected cells
# Experimental: The CHO-K1 cells (CRL 9618) were obtained from American Type Culture Collection (Rockville, Md.). CHO cells were grown in Ham's F12 medium containing L-Glutamine (2 mM), HEPES (25 mM), NaHCO3 (1.1 g/L) and supplemented with newborn Calf Serum (NBCS; 10%), Penicillin (50 U/ml (v/v)) and Streptomycin (50 ug/ml (v/v)). Cells were split every 3 days 1:8.
# The full-length cDNA was cloned in pcDNA3.1 (Invitrogen). […] Clones expressing the receptor were generated by G418 (800 μg/ml active, Sigma) selection. The stable clones were thereafter maintained at 500 ug/ml (G418). The selected clone was used between passages 9-25 for cAMP assays.
# The cells were trypsinized using 2 ml of TPVG (0.25% trypsin, 0.53 mM EDTA, 1.38-mM glucose). The trypsin was inactivated using Ham's F12 medium containing 10% NBCS and the cells were suspended in 2 ml of complete medium. […] The medium was aspirated off from the 12 well plate and the cells were washed once using Ham's F12 (plain). The cells were incubated at 37° C. with 500 ul of Ham's F12+1% BSA+0.125 mM RO-20 for 30 min. […] After the incubation, the medium was removed and cells were washed once with plain Ham's F12. Subsequently, the cells were lysed by adding 500 ul of ice cold 0.1 N HCl to each well and shaking for 30 minutes at 200 rpm. The cells were then scrapped, the lysate was collected in micro centrifuge tubes and centrifuged at 12000 rpm for 10 min to remove the debris. 300 ul of supernatant from each micro-centrifuge tube was then removed into a glass tube and dried under N2 for 30 min, for cAMP estimation. The total cAMP was estimated from the sample according to the manufacturer's protocol using Cyclic AMP immunoassay kit (R&D systems, Minneapolis. MN). The remaining supernatant is used to determine the protein concentration using micro BCA (Sigma). Data is calculated as percent of control (Vehicle: water) and expressed as Mean+SD.
# T1 sequence (P47871 26-477): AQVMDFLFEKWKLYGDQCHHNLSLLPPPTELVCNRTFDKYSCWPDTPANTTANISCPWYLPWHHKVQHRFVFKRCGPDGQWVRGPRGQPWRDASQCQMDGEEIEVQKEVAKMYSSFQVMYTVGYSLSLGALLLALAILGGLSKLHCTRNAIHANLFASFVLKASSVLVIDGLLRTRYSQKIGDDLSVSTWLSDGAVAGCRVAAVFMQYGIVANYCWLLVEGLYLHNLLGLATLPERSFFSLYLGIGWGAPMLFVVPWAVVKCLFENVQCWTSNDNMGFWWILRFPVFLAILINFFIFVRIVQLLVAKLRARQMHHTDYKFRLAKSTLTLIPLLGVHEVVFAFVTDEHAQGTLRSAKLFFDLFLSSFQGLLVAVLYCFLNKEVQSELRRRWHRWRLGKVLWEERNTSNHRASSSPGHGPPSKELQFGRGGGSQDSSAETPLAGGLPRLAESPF
Compound,Insulin secretion ([1]; 0.1 nM test compd.) [pg/µg/h],Insulin secretion ([1]; 1 nM test compd.) [pg/µg/h],Insulin secretion ([1]; 10 nM test compd.) [pg/µg/h],Human Glucagon receptor antagonistic activity shown as inhibition of cAMP production of Glucagon peptide (human glucagon receptor; 1 nM test compound) [pmol/ml/μg prt],Human Glucagon receptor antagonistic activity shown as inhibition of cAMP production of Glucagon peptide (human glucagon receptor; 10 nM test compound) [pmol/ml/μg prt],Human Glucagon receptor antagonistic activity shown as inhibition of cAMP production of Glucagon peptide (human glucagon receptor; 100 nM test compound) [pmol/ml/μg prt],Human Glucagon receptor antagonistic activity shown as inhibition of cAMP production of Glucagon peptide (human glucagon receptor; 1 μM test compound) [pmol/ml/μg prt],Human Glucagon receptor antagonistic activity shown as inhibition of cAMP production of Glucagon peptide (human glucagon receptor; 10 μM test compound) [pmol/ml/μg prt]
"CCc1cc(OC)ccc1-c1ccc(CC(NC(=O)[C@H](CC(=O)O)NC(=O)[C@H](CO)NC(=O)[C@@H](NC(=O)C(C)(Cc2ccccc2F)NC(=O)[C@@H](NC(=O)CNC(=O)[C@H](CCC(N)=O)NC(=O)C(C)(C)NC(=O)[C@@H](N)Cc2c[nH]cn2)[C@@H](C)O)[C@@H](C)O)C(=O)NC(CCCc2ccc(Cl)cc2C)C(N)=O)cc1 (single isomer, unassigned) [compound 40]",12.6 ± 0.20,15.9 ± 0.31,28.4 ± 0.11,18 ± 0.07,16 ± 0.01,12 ± 0.03,8 ± 0.02,6 ± 0.08
"CCc1cc(OC)ccc1-c1ccc(CC(CNC(CCCc2ccccc2F)C(N)=O)NC(=O)[C@H](CC(=O)O)NC(=O)[C@H](CO)NC(=O)[C@@H](NC(=O)C(C)(Cc2ccccc2F)NC(=O)[C@@H](NC(=O)CNC(=O)C(CCC#N)NC(=O)C(C)(C)NC(=O)[C@@H](N)Cc2c[nH]cn2)[C@H](C)O)[C@H](C)O)cc1 (single isomer, unassigned) [compound 192]",16.6 ± 0.41,22.9 ± 0.32,36.7 ± 0.11,4 ± 0.09,2 ± 0.12,0,0,0
"CCc1cc(OC)ccc1-c1ccc(CC(NC(=O)[C@H](CC(=O)O)NC(=O)[C@H](CO)NC(=O)[C@@H](NC(=O)C(C)(Cc2ccccc2F)NC(=O)[C@@H](NC(=O)CNC(=O)[C@H](CC(C(F)(F)F)C(F)(F)F)NC(=O)C(C)(C)NC(=O)[C@@H](N)Cc2c[nH]cn2)[C@@H](C)O)[C@@H](C)O)C(=O)NC(CCCc2cc(C)cc(C)c2)C(N)=O)cc1 (single isomer, unassigned) [compound 235]",12.6 ± 0.25,15.3 ± 0.31,29.7 ± 0.48,,,,,
CCc1cc(OC)ccc1-c1ccc(CC(NC(=O)[C@H](CC(=O)O)NC(=O)[C@H](CO)NC(=O)[C@@H](NC(=O)[C@H](Cc2ccccc2)NC(=O)[C@@H](NC(=O)CNC(=O)[C@H](CCC(N)=O)NC(=O)C2(NC(=O)[C@@H](N)Cc3c[nH]cn3)CCCC2)[C@@H](C)O)[C@@H](C)O)C(=O)NC(CCCc2ccccc2)C(N)=O)cc1 (stereo partly shown) [compound 25] (H-H[Ac5c]QGTFTSD[ξBip(2'-Et-4'-OMe)][ξhhPhe]-NH2),15.6 ± 0.30,21.8 ± 0.11,35.6 ± 0.20,,,,,
CCc1cc(OC)ccc1-c1ccc(CC(NC(=O)[C@H](CC(=O)O)NC(=O)[C@H](CO)NC(=O)[C@@H](NC(=O)[C@H](Cc2ccccc2)NC(=O)[C@@H](NC(=O)CNC(=O)[C@H](CCC(N)=O)NC(=O)[C@H](CO)NC(=O)[C@@H](N)Cc2c[nH]cn2)[C@@H](C)O)[C@@H](C)O)C(=O)NC(CCCc2ccc(F)cc2F)C(N)=O)cc1 (stereo partly shown) [compound 46] (H-HSQGTFTSD[ξBip(2'-Et-4'-OMe)][X10]-NH2),12.7 ± 0.21,15.8 ± 0.33,29.3 ± 0.19,,,,,
CCc1cc(OC)ccc1-c1ccc(CC(NC(=O)[C@H](CC(=O)O)NC(=O)[C@H](CO)NC(=O)[C@@H](NC(=O)[C@H](Cc2ccccc2)NC(=O)[C@@H](NC(=O)CNC(=O)C(CCC#N)NC(=O)C(C)(C)NC(=O)[C@@H](N)Cc2c[nH]cn2)[C@@H](C)O)[C@@H](C)O)C(=O)NC(CCCc2ccc(Cl)cc2Cl)C(N)=O)cc1 (stereo partly shown) [compound 83] (H-H[Aib][ξAbu(4-CN)]GTFTSD[ξBip(2'-Et-4'-OMe)][X6]-NH2),12.3 ± 0.33,14.1 ± 0.36,28.0 ± 0.16,,,,,
